For 44 compounds, EC50 results are on record in patent US8957062B2, “Substituted cyclopropyl compounds, compositions containing such compounds and methods of treatment” (Merck Sharp & Dohme Corp., priority 2011, dated 2015).

pEC50: −log10 of the molar value.

The first assay addresses T1, human GPR119 (Homo sapiens, UniProt Q8TDV5).
T1 sequence (Q8TDV5 1-308 limits assumed): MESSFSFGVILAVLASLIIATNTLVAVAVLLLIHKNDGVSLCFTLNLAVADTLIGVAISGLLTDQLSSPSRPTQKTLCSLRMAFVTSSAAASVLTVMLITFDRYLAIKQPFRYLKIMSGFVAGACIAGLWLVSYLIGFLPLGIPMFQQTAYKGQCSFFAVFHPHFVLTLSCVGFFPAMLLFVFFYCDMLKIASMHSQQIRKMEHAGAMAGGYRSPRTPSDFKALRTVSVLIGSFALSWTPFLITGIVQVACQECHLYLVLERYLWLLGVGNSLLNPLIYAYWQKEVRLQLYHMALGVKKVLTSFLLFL
The assay can be described thus: Measurement of GPR119 signaling (cAMP assay) in cells stably transfected with human GPR119. The class given is cell-based. The conditions noted are these: cAMP stimulation; read-out: GPR119 HumC EC50. As for the experimental part:
Measurement of GPR119 Signaling (Cyclic AMP (cAMP) Assay)
The adenylate cyclase assay was constructed following the LANCE™ cAMP Kit (Perkin Elmer, AD0264) instructions.
The reaction was stopped by incubating with the supplied detection buffer containing the europium chelate of the Eu-SA/Biotin-cAMP tracer for 3 hours. The assay was performed in duplicate in a 384 well plate for duplicate plates and fluorescence was measured at 665 nm. Basal activity was determined using a DMSO control and maximum response was defined as cAMP stimulation produced by an internal agonist control. Standard cAMP concentrations were assayed concurrently for conversion of fluorescence signal to cAMP level. The data was analyzed using 4-parameter curve fit in Microsoft Excel.
Measurement of GPR119 Signaling (cAMP Homogenous Time Resolved Fluorescence (HTRF) Assay)
Chinese hamster ovary (CHO) cell lines stably transfected with the permissive guanine nucleotide binding protein alpha 15 (Gα15) and murine GPR119 were maintained in DMEM media containing FBS, penicillin-streptomycin, puromycin, and G418 (geneticin). […] Agonist activation of the GPR119 receptor was measured in receptor transfected cells described above, treated with compounds of this invention, using a commercial homogenous time resolved fluorescence (HTRF) kit for measurement of cAMP (CisBio, Bedford, Mass.). The assay was performed in 96-well half-volume plates (murine) or 384-well plates (human) following the manufacturers instructions. Briefly, suspended cells were incubated with a dose titration of test compound at RT for 60 min, lysed, and incubated with HTRF reagents for an additional 60 min. The plate was read using an Envision multilabel reader (Perkin Elmer) adjusted to read time resolved fluorescence and the cAMP concentrations were extrapolated from a cAMP calibration curve. […] The concentration of test compound required to stimulate a half-maximal response (EC50), and efficacy as compared to an internal agonist control, was determined from a sigmoidal 4-parameter curve fit of the resulting plot of normalized activity versus compound concentration.
For orientation: cAMP levels reflect the balance of adenylyl cyclase and phosphodiesterase activity.
The pEC50 is the EC50 on a negative log10 scale, so that one unit is a factor of ten. As to `COCc1noc(N2CCC([C@H]3C[C@H]3CCOc3ccc(CC(=O)N4CCC4)c(Cl)c3)CC2)n1` [Example 104], the pEC50 is 8.59.

As for `CC(C)c1noc(N2CCC([C@H]3C[C@H]3CCOc3cc(F)c(CC(=O)N4CCC4)c(F)c3)CC2)n1` [Example 109], the negative-log EC50 (pEC50) was 9.62.

The assay is the same for the next values; noted with them: stated in the example text; cAMP stimulation, human GPR119; read-out: GPR119 Human EC50.
Regarding `CC(C)COC(=O)N1CCC([C@H]2C[C@H]2CCOc2ccc(-n3cnnn3)cc2)CC1` [Example 1, isobutyl 4-((1R,2S)-2-(2-(4-(1H-tetrazol-1-yl)phenoxy)ethyl)cyclopropyl)piperidine-1-carboxylate], the pEC50 is 8.80.

`COCc1noc(N2CCC([C@@H]3C[C@@H]3CCOc3ccc(S(C)(=O)=O)cc3F)CC2)n1` (stereo in doubt) [Example 220, 4-((1S,2R)-2-{2-[2-fluoro-4-(methylsulfonyl)phenoxy]ethyl}cyclopropyl)-1-[3-(methoxymethyl)-1,2,4-oxadiazol-5-yl]piperidine]: the pEC50 was 9.05.

As to `COCc1noc(N2CCC([C@H]3C[C@H]3CCOc3ccc(CC(=O)N4CCC4)c(F)c3)CC2)n1` [Example 115, 4-[(1R,2S)-2-{2-[4-(2-azetidin-1-yl-2-oxoethyl)-3-fluorophenoxy]ethyl}cyclopropyl]-1-[3-(methoxymethyl)-1,2,4-oxadiazol-5-yl]piperidine], the pEC50 is 8.24.

As to `CC(C)c1noc(N2CCC([C@H]3C[C@H]3CCOc3ccc(CC(=O)N4CC(F)C4)c(F)c3)CC2)n1` [Example 100, 4-[(1R,2S)-2-(2-{3-fluoro-4-[2-(3-fluoroazetidin-1-yl)-2-oxoethyl]phenoxy}ethyl)cyclopropyl]-1-(3-isopropyl-1,2,4-oxadiazol-5-yl)piperidine], the pEC50 was 9.40. Same read-out and setting: the value for `CC(C)(C)OC(=O)N1CCC([C@H]2C[C@H]2CCOc2ccc(S(C)(=O)=O)cc2)CC1` [Example 35, tert-butyl 4-((1R,2S)-2-{2-[4-(methylsulfonyl)phenoxy]ethyl}cyclopropyl) piperidine-1-carboxylate] was 9.05; that for `Cc1cc(OCC[C@@H]2C[C@@H]2C2CCN(C(=O)OC3(C)CC3)CC2)ccc1CC(=O)N1CCC1` [Example 60, 1-methylcyclopropyl-4-((1R,2S)-2-{2-[4-(2-azetidin-1-yl-2-oxoethyl)-3-methylphenoxy]ethyl}cyclopropyl)piperidine-1-carboxylate] was 8.27.

The same assay, now with this note: table column; cAMP stimulation, human GPR119; read-out: GPR119 Human EC50.
Consider `CS(=O)(=O)c1ccc(OCC[C@@H]2C[C@@H]2C2CCN(C(=O)CC3CC4C=CC3C4)CC2)nc1` (some centres unmarked) [Example 90], for which the pEC50 was 7.80.

On to `COC1CN(C(=O)Cc2ccc(OCC[C@@H]3C[C@@H]3C3CCN(c4nc(C(C)C)no4)CC3)cc2)C1` [Example 135], for which the pEC50 was 8.07. For the compound `CS(=O)(=O)c1ccc(OCC[C@@H]2C[C@@H]2C2CCN(c3nnc(-c4ccccc4)o3)CC2)nc1` [Example 250], the pEC50 was 7.31. Same read-out and setting: under `O=C(OCc1ccccc1)N1CCC([C@H]2C[C@H]2CCOc2ccc(-n3cnnn3)cn2)CC1` [Example 33] stands 7.82; under `CC(C)c1noc(N2CCC([C@H]3C[C@H]3CCOc3ccc(CC(=O)N4CCc5nccnc5C4)c(F)c3)CC2)n1` [Example 193], 8.89; under `CC(C)c1noc(N2CCC([C@H]3C[C@H]3CCOc3ccc(CC(=O)NC4CCCC4)c(F)c3)CC2)n1` [Example 156], 8.27. Still for that read-out and setting: under `COCc1noc(N2CCC([C@H]3C[C@H]3CCOc3ccc(CC(=O)N(C)C)c(F)c3)CC2)n1` [Example 201] stands 8.23; under `O=C(OCc1ccccc1)N1CCC([C@H]2C[C@H]2CCOc2ccc(-n3cnnn3)cc2)CC1` [Example 12], 7.93.

Consider `CC(C)c1noc(N2CCC([C@H]3C[C@H]3CCOc3ccc(CC(=O)N4CC(C(C)(C)O)C4)c(F)c3)CC2)n1` [Example 149], for which the pEC50 was 8.09. In the case of `CS(=O)(=O)c1ccc(OCC[C@@H]2C[C@@H]2C2CCN(c3nnc(C4CCC4)o3)CC2)nc1` [Example 248], the pEC50 is 7.41. On the same count and under the same terms, the value for `CC1(OC(=O)N2CCC([C@H]3C[C@H]3CCOc3ccc(S(C)(=O)=O)cn3)CC2)CC1` [Example 24] was 8.38.

As to `COc1cc(OCC[C@@H]2C[C@@H]2C2CCN(c3nc(C(C)C)no3)CC2)ccc1-n1cnnn1` [Example 125], the pEC50 is 7.96. On the same count and under the same terms, the value for `CC(C)c1noc(N2CCC([C@H]3C[C@H]3CCOc3cc(F)c(C(=O)C4CC4)c(F)c3)CC2)n1` [Example 120] was 10.00; that for `CS(=O)(=O)c1ccc(OCC[C@@H]2C[C@@H]2C2CCN(c3noc(CCC(F)(F)F)n3)CC2)nc1` [Example 237] was 7.74. The same measure, in the same setting: the value for `CS(=O)(=O)c1ccc(OCC[C@@H]2C[C@@H]2C2CCN(c3nnc(C4CCCC4)o3)CC2)nc1` [Example 249] was 7.49. The same measure, in the same setting: under `CCCc1noc(N2CCC([C@H]3C[C@H]3CCOc3ccc(S(C)(=O)=O)cn3)CC2)n1` [Example 211] stands 8.10. On to `CCS(=O)(=O)c1ccc(OCC[C@@H]2C[C@@H]2C2CCN(c3nc(C(C)C)no3)CC2)cc1F` [Example 28], for which the pEC50 was 8.74. On the same count and under the same terms, the value for `O=C(OC1CCC1)N1CCC([C@H]2C[C@H]2CCOc2ccc(-n3cnnn3)cc2)CC1` [Example 8] was 9.00; that for `CC(C)c1noc(N2CCC([C@H]3C[C@H]3CCOc3ccc(S(C)(=O)=O)c(F)c3)CC2)n1` [Example 119] was 8.89; that for `Cc1cc(CC(=O)N(C)C)cnc1OCC[C@@H]1C[C@@H]1C1CCN(c2nc(C(C)C)no2)CC1` [Example 263] was 7.85.

In the case of `CC(C)c1noc(N2CCC([C@H]3C[C@H]3CCOc3ccc(CC(=O)N(C)CC4CCC(=O)N4)c(F)c3)CC2)n1` (some centres unmarked) [Example 170], the pEC50 was 8.10. The same measure, in the same setting: under `CCOC(=O)N1CCC([C@H]2C[C@H]2CCOc2cc(F)c(C(=O)C3CC3)c(F)c2)CC1` [Example 55] stands 8.96. The same measure, in the same setting: the value for `CC(C)c1noc(N2CCC([C@H]3C[C@H]3CCOc3ccc(CC(=O)N4Cc5nnc(C(F)(F)F)n5C(C)C4)c(F)c3)CC2)n1` (some centres unmarked) [Example 182] was 8.06; that for `COCc1noc(N2CCC([C@H]3C[C@H]3CCOc3ccc(CC(=O)NC4CC4)c(F)c3)CC2)n1` [Example 198] was 7.89; that for `CC(C)c1noc(N2CCC([C@H]3C[C@H]3CCOc3ccc(CC(=O)N4CCOCC4)cc3)CC2)n1` [Example 133] was 8.22. Same read-out and setting: the value for `CC(C)c1noc(N2CCC([C@H]3C[C@H]3CCOc3ccc(S(C)(=O)=O)nc3)CC2)n1` [Example 130] was 7.97; that for `COC(C)c1noc(N2CCC([C@H]3C[C@H]3CCOc3ccc(S(C)(=O)=O)cn3)CC2)n1` (some centres unmarked) [Example 215] was 8.24. In the case of `CC(C)c1noc(N2CCC([C@H]3C[C@H]3CCOc3ccc(-n4cnnn4)cn3)CC2)n1` [Example 231], the pEC50 was 9.40. On the same count and under the same terms, under `CC(C)(C)COC(=O)N1CCC([C@H]2C[C@H]2CCOc2ccc(S(C)(=O)=O)c(F)c2)CC1` [Example 41] stands 9.40; under `CC(C)c1noc(N2CCC([C@H]3C[C@H]3CCOc3ccc(S(C)(=O)=O)cc3F)CC2)n1` [Example 123], 8.42. For the compound `CC(C)(C)OC(=O)N1CCC([C@H]2C[C@H]2CCOc2ccc(S(C)(=O)=O)cn2)CC1` [Example 17], the pEC50 was 8.24. Same read-out and setting: under `COCCc1noc(N2CCC([C@H]3C[C@H]3CCOc3ccc(-n4cnnn4)cn3)CC2)n1` [Example 232] stands 7.97; under `COCc1noc(N2CCC([C@H]3C[C@H]3CCOc3cc(F)c(CC(=O)N4CCOCC4)c(F)c3)CC2)n1` [Example 207], 8.51. On the same count and under the same terms, the value for `CC(C)c1noc(N2CCC([C@H]3C[C@H]3CCOc3ccc(CC(=O)NCC4CC4)c(F)c3)CC2)n1` [Example 155] was 8.12. Same read-out and setting: under `CC1(OC(=O)N2CCC([C@H]3C[C@H]3CCOc3cc(F)c(C(=O)C4CC4)c(F)c3)CC2)CC1` [Example 54] stands 9.15; under `CC(C)c1noc(N2CCC([C@H]3C[C@H]3CCOc3ccc(CC(=O)NC4CC4)c(F)c3)CC2)n1` [Example 150], 8.68.
